Laboratory results as given in US6630491B1, “Use of nicotinic analogs for treatment of degenerative diseases of the nervous system” (priority 1991, dated 2003).
Counter-ions that a name gives are not always drawn.

How the values were obtained:
aged rats [1] = experiment: Lashley III maze testing of aged rats; type: in vivo, rat; details: aged animals, 2 mg/kg before training, first two blocks of tests, FIG. 5
Description: The Lashley III maze tests an animal's ability to learn a series of left-right alternation turns. Six alternation errors are possible for any given daily trial; chance performance level is 3 errors per trial. Previous studies have shown that young adult sham operated animals quickly learn to reduce their number of alternation errors to near zero by the end of the test period. By contrast, 23 months old (Aged) sham operated animals made substantially more errors over the 25 days of testing. […] Therefore, both age- and lesion-induced learning deficits were observed. Nonetheless, all groups did improve their performance over time.
Aged animals injected with saline or DMAB-anabaseine were evaluated in the Lashley III maze (FIG. 5). […] This reflected an improvement in another memory-related behavior with this nicotine agonist.

[2] = tested on: isolated terminals (synaptosomes) of cerebral cortex; experiment: Release of [3H]aspartate from isolated terminals
Description: (§1) Neurotransmitter release from synaptosomes provides a potential marker for receptor-activity at different types of nerve terminals. Neurotransmitter release from intact slices or minces provides a marker for receptor activity at many sites on the neuron. A comparison of the effects of nicotine and other drugs on synaptosomes versus slices provides some idea as to the location of nicotinic receptors on different types of cerebral cortical neurons, as well as their cellular location.
(§2) These different types of cerebral cortical transmitter systems have been tested. The first is the cholinergic; the procedures used to load cholinergic neurons or slices with newly synthesized [3H]ACh were described previously (Meyer, et al., 1987). The second is aspartate, an excitatory amino acid which, like glutamate, is associated with memory (long term potentiation) and neuropathology (e.g., stroke). The third type of neurotransmitter is GABA, which is the predominant transmitter in the cerebral cortex and is therefore very likely to receive cholinergic innervation.
(§3) In order to measure aspartate or GABA release, tissues were incubated with 100 nM [3H] aspartate or 250 nM [3h] GABA in Krebs Ringer buffer at 37° C. for 30 minutes, then washed them in ice cold buffer. All release-incubations were at 37° C. for 15 minutes in the presence or absence of 50 mM KCl (depolarization). Radiation accumulation was also measured in slices in order to express the released levels of transmitter as % of total transmitter, since slices were somewhat variable with respect to accumulation of label. K+ induced release of transmitter was determined by subtracting the basal release from that in the presence of the elevated K+, such that only the incremental release was determined.
(§4) Neurotransmitter levels (aspartate, glutamate) and enzyme levels were assayed as described by Arendash, et al., Science, 238:952, 1987. […] ACh from synaptosomes. Also, no effect was seen on the release of [3H] aspartate from isolated terminals.

aged rats [3] = experiment: 17-arm radial maze testing of aged rats; type: in vivo, rat; details: 2 mg/kg 15 minutes prior to each daily trial, FIG. 4
Description: The 17 arm radial maze requires animals to remember a baited set of 8 arms out of the 17 total arms. At the start of each daily trial, rats are placed in the center of the maze and permitted to choose among the 17 arms until all 8 food rewards are taken or until fifteen minutes elapse. Those animals that reach a performance criteria of 17 arm choices on two consecutive days of testing during the first 14 days of testing are continued in testing for an additional 30 days. For such animals, only data collected after day 14 are used in the statistical analyses. Statistical analyses are done on 3 sets of data. The first is a measure of general learning: the percent correct choices (entries into baited arms) over the first 8 arm choices. The second is a measure of short term memory (working memory) calculated from the first 12 arm choices: the percent of choices into baited arms (containing food) over the total number of choices within the baited set. Working memory, an interatrial measure of short term memory, measured the rat's ability to remember which of the arms in the baited set were previously entered and the food reward taken. The third set of data measured long-term or reference memory and also was calculated from the first 12 arm choices. Reference memory, defined as an inter-trial measure, is the percent correct choices in the baited set over the total number of arm choices. […]

[4] = tested on: Male Sprague Dawley albino rats; experiment: Passive avoidance behavior in nucleus basalis lesioned and unlesioned rats; type: in vivo, rat; details: for shift (increase) in potency by lesioning: lesioned vs unlesioned animals; for shift (increase) in potency by lesioning / potency in lesioned vs unlesioned animals: passive avoidance; for potency in lesioned vs unlesioned animals: FIGS. 1 and 2; for dose that interfered with training or behavior: after lesioning; for effective dose in passive avoidance behavior: i.p. 5 min before trial and testing
Experimental: Male Sprague Dawley albino rats were used for all studies and were maintained in departmental animal facilities, using NIH guidelines for care of animals. Where lesioned animals were tested, lesions were induced in anesthetized animals by bilateral infusion of ibotenic acid (5 μg in 1 μl) or phosphate buffered saline (PBS) into the nucleus basalis region.
For passive avoidance behavior, animals received a moderately strong shock (0.8 m Amp) for 1 second after entering a dark room. After 24 hours, the animals were again tested to determine if they could remember to stay out of the dark room. Animals were only allowed 5 minutes to make their choice, when they were removed from the lighted chamber. For testing the effects of drugs in animals that were not lesioned, shocks were only 0.5m Amp in intensity, and the animals were allowed 72 hours until they were tested after training. In all drug-treatment studies, the drugs were injected intraperitoneally in saline diluent 5 minutes before the trial and 5 minutes before the testing period.
The effect of (−)anabaseine on passive avoidance was also determined using unlesioned animals (FIG. 3). In these experiments (−)anabaseine was injected intraperitoneally 5 min. before training and testing in the passive avoidance apparatus. Only animals that trained within 300 sec the first time were used (i.e., those animals that entered the dark compartment and received a mild foot shock).

brain tissue slices = experiment: Aspartate release from brain tissue slices; details: for aspartate release, dose relation: except at one low concentration, FIGS. 6 and 7
Description: as §2, §3
The fact that nicotine […] without increasing basal release as well as K+ induced release is surprising. One hypothesis is that nicotine stimulates another type of neuron (presumably excitatory) to dis-inhibit the release of aspartate; this dis-inhibition would not be seen except when the aspartate neuron itself was activated by depolarization.

[5] = tested on: cerebral cortical synaptosomes; experiment: Release of newly synthesized [3H]ACh from synaptosomes
Description: as §1, §2, §3, §4

[6] = Water solubility (observation during synthesis); type: physicochemical
Experimental: The lithium enolate of 3nicotinoyl2-piperidone (4.94w) of step 1 was added slowly to a round bottom flask containing 30 mL of concentrated HCl which was chilled in an ice bath and stirred. The enolate was not readily soluble. The reaction mixture was heated at reflux under nitrogen overnight to effect the hydrolysis and decarboxylation. […] The reaction should not be diluted with too much aqueous acid or the product will not crystallize during the work up.

cortical slices [7] = experiment: [3H]GABA release from cortical slices
Description: as §2, §3
This pattern was also observed with [3H]ACh release and [3H]GABA release from cortical slices. […]

[8] = tested on: vertebrate neuromuscular nicotinic acetylcholine receptors; details: Kem, Amer.Zoologist, 25:99, 1985; cited from earlier work
cortical slices [9] = experiment: [3H]ACh release from cortical slices
Description: as §2, §3
This pattern was also observed with [3H]ACh release and [3H]GABA release from cortical slices. Nicotine (100 nM) increased the K+ induced release of ACh but reduced the K+induced GABA release from slices, while anabaseine (1 μM) had no effect on either process. […] Thus, it appears that the ability of nicotinic types of compounds to modulate neurotransmitter release is not mediated through one of the receptors with high affinity for anabaseine, or DMAB-anabaseine.

[10] = even in animals with reduced neocortical cholinergic activity

Sequence of vertebrate neuromuscular nicotinic acetylcholine receptors (P02708 21-457): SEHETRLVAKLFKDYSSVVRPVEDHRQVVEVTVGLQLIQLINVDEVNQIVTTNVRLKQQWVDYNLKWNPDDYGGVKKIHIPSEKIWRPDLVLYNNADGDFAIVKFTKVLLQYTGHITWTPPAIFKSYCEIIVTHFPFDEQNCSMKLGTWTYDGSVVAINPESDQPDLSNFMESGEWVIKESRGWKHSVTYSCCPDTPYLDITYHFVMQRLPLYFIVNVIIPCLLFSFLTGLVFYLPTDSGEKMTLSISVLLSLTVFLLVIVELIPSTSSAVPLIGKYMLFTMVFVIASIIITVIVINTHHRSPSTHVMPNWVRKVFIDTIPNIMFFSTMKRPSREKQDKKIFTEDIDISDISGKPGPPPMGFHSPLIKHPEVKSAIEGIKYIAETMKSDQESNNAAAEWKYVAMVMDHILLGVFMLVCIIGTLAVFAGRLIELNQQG
Sequence of vertebrate neuromuscular nicotinic acetylcholine receptors (P11230 24-501 partner): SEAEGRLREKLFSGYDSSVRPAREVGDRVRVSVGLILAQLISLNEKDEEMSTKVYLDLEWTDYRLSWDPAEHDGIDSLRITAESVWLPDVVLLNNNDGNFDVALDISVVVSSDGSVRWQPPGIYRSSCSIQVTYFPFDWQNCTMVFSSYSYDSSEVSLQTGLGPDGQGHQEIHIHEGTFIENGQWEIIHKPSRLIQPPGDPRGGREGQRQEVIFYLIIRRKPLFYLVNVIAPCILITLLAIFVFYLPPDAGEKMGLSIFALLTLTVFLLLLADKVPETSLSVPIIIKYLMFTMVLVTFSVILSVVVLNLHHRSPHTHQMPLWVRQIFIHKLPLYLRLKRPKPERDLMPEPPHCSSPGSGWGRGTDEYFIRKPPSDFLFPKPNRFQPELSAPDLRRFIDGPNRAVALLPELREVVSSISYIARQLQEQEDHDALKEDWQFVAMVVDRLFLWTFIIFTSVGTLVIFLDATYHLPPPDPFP
Sequence of vertebrate neuromuscular nicotinic acetylcholine receptors (Q07001 22-517 partner): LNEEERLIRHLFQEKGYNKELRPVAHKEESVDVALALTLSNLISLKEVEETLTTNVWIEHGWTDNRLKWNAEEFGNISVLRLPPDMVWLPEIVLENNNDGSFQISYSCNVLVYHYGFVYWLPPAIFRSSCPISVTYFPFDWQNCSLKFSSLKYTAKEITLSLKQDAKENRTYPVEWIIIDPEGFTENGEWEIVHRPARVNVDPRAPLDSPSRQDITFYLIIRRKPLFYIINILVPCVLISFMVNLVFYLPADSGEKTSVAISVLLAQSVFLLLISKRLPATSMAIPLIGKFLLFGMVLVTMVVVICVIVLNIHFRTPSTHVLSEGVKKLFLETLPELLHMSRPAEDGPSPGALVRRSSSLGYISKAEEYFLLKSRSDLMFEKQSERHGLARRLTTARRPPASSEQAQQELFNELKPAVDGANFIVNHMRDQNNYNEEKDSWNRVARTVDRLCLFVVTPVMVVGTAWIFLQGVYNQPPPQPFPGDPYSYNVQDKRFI

With `CN(C)c1ccc(C=C2CCCN=C2c2cccnc2)cc1` [DMAB-anabaseine, 3-[p-(dimethylamino)benzylidene]-3,4,5,6-tetrahydro-2,3′-bipyridine] the “number of errors in the maze” value (aged rats [1]) was “reduced the number of errors”, the “release of [3H]aspartate” value [2] was “no effect” and the “measure of long term memory” value (aged rats [3]) was “improved”. The short term memory (aged rats [3]) was “without affecting”, the “effect on passive avoidance (memory-related) behavior” value (shortened to “effect on passive avoidance”) [4, 10] was “can improve this type of memory-related behavior” and the “shift (increase) in potency by lesioning” value [4] was 2-2.5 fold. The “potency in lesioned vs unlesioned animals” value [4] was “more potent in lesioned then in unlesioned animals”, the “aspartate release, dose relation” value (brain tissue slices) was “did not increase aspartate release in a dose-related manner” and the “50 mM KCl induced release of newly synthesized [3H]ACh” value (“50 mM KCl induced release” for short) [5] was “no effect”. The “basal release of newly synthesized [3H]ACh” value (“basal release” below) [5] was “no effect”.
With `c1cncc(C2=NCCCC2)c1` [anabaseine dihydrochloride] the water solubility [6] was “very water soluble”.
For `c1cncc(C2=NCCCC2)c1` [anabaseine, 2-(3-pyridyl)-3,4,5,6-tetrahydropyridine], the “K+ induced GABA release” value (cortical slices [7]; 1 μM) is listed as “no effect”, the “release of [3H]aspartate” value [2] is listed as “no effect” and the “activation of vertebrate neuromuscular nicotinic acetylcholine receptors” value [8] is listed as “potent activator”. The “dose that interfered with training or behavior” value [4] was 0.2 mg/kg, the “effect on passive avoidance” value [4, 10] was “can improve this type of memory-related behavior” and the “shift (increase) in potency by lesioning” value [4] was about 2.5 fold. For the same compound, the “potency in lesioned vs unlesioned animals” value [4] was “more potent in lesioned then in unlesioned animals”, the “effect on passive avoidance” value ([4]; unlesioned animals, i.p. 5 min before training and testing (FIG. 3)) was “can improve this type of memory-related behavior” and the “K+ induced release of ACh” value (cortical slices [9]; 1 μM) was “no effect”. For the same compound, the “aspartate release, dose relation” value (brain tissue slices) was “did not increase aspartate release in a dose-related manner”, the “50 mM KCl induced release” value [5] was “no effect” and the “basal release” value [5] was “no effect”.
With `CN1CCCC1c1cccnc1` (stereo not shown) [nicotine, reference compound] the “K+ induced GABA release” value (cortical slices [7]; 100 nM) was “reduced”, the “release of [3H]aspartate” value [2] was “no effect” and the “dose that interfered with training or behavior” value [4] was 0.2 mg/kg. The “effective dose in passive avoidance behavior” value ([4]; nucleus basalis lesioned animals) was 0.02 mg/kg, the “effective dose in passive avoidance behavior” value ([4]; unlesioned animals) was 0.05 mg/kg and the “basal ACh release” value (cortical slices [9]) was “increased”. For the same compound, the “K+ induced release of ACh” value (cortical slices [9]; 100 nM) was “increased”, the “K+ induced release of aspartate” value (brain tissue slices; 100 nM, FIG. 6) was “increased” and the “spontaneous release of transmitter (aspartate)” value (brain tissue slices; 100 nM, FIG. 6) was “without affecting”. For the same compound, the “50 mM KCl induced release” value [5] was “no effect” and the “basal release” value [5] was “no effect”.
